This is an account of results in US8618107B2 (Gilead Connecticut, Inc., priority 2010, dated 2013).

Series [1] deals with CD86 surface expression on CD19+/7AAD- mouse splenocytes stimulated with IgM. Put plainly: CD86 Inhibition Assay. It is filed as cell-based. The settings on record: Splenocyte; total mouse splenocytes (Balb/c), IgM stimulation 24 hr.
Method: Following the 24 hr incubation, cells are transferred to conical bottom clear 96-well plates and pelleted by centrifugation at 1200×g×5 min. […] Cells are sorted on a BD FACSCalibur and gated on the CD19^+/7AAD^− population. The levels of CD86 surface expression on the gated population is measured versus test compound concentration.
Series [2] deals with CD69 on CD20 positive cells in human whole blood stimulated by anti-IgM. In words: CD69 Whole Blood Assay. The conditions noted are these: anti-human IgM stimulation, 20 hours. In kind it is cell-based.
Method: Human blood is obtained from healthy volunteers, with the following restrictions: 1 week drug-free, non-smokers. Blood (approximately 20 mls to test 8 compounds) is collected by venipuncture into Vacutainer® (Becton, Dickinson and Co.) tubes with sodium heparin.
Solutions of Formula I compounds at 10 mM in DMSO are diluted 1:10 in 100% DMSO, then are diluted by three-fold serial dilutions in 100% DMSO for a ten point dose-response curve. The compounds are further diluted 1:10 in PBS and then an aliquot of 5.5 μl of each compound is added in duplicate to a 2 ml 96-well plate; 5.5 μl of 10% DMSO in PBS is added as control and no-stimulus wells. Human whole blood—HWB (100 μl) is added to each well. After mixing the plates are incubated at 37° C., 5% CO2, 100% humidity for 30 minutes. Goat F(ab′)2 anti-human IgM (10 μl of a 500 μg/ml solution, 50 μg/ml final) is added to each well (except the no-stimulus wells) with mixing and the plates are incubated for an additional 20 hours. At the end of the 20 hour incubation, samples are incubated with fluorescent labeled antibodies for 30 minutes, at 37° C., 5% CO2, 100% humidity. Include induced control, unstained and single stains for compensation adjustments and initial voltage settings. Samples are then lysed with PharM Lyse™ (BD Biosciences Pharmingen) according to the manufacturer's instructions. Samples are then transferred to a 96 well plate suitable to be run on the BD Biosciences HTS 96 well system on the LSRII machine. Data acquired and Mean Fluorescence Intensity values were obtained using BD Biosciences DIVA Software. Results are initially analyzed by FACS analysis software (Flow Jo). […] The IC50 values are calculated by Prism version 5, using a nonlinear regression curve fit.
Another series deals with Btk (Homo sapiens (Human), UniProt Q06187). Put plainly: standard biochemical Btk Kinase Assay (Example 901). The conditions noted are these: Table 2.
Btk, sequence (Q06187 whole entry): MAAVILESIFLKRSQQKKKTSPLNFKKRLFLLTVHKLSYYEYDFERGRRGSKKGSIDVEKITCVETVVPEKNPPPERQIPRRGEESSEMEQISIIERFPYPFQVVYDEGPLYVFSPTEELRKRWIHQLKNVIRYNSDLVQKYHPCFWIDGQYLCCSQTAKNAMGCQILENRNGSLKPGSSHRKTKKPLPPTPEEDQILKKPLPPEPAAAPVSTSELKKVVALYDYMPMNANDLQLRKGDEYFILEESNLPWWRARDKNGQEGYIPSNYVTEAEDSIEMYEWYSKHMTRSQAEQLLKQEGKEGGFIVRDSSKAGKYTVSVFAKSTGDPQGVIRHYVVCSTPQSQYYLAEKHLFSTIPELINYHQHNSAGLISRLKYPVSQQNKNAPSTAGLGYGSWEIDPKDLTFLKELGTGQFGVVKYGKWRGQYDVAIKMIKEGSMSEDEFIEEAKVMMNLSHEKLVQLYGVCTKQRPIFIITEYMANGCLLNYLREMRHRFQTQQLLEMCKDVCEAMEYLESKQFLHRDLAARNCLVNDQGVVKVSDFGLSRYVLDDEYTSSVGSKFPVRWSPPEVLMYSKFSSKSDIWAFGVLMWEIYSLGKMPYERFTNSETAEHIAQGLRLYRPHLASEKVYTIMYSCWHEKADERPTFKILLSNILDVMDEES

In series [1], `CN1CCCC1c1ccc(Nc2cc(-c3cc(F)cc(N4CCc5c(sc6c5CCCC6)C4=O)c3CO)cn(C)c2=O)nc1` (stereo in doubt) [Example 313, 5-[5-Fluoro-2-(hydroxymethyl)-3-(1-methyl-5-{[5-(2S)-(1-methylpyrrolidin-2-yl)pyridine-2-yl]amino}-6-oxo-1,6-dihydropyridin-3-yl)phenyl]-8-thia-5-azatricyclo[7.4.0.0^2,7]trideca-1(9),2(7)-dien-6-one] displayed an EC50 of 6 nM. Besides, in series [2], 44 nM corresponded to half-maximal inhibition (IC50). For `CN1CCN(c2ccc(Nc3cc(-c4cc(F)cc(N5CCn6c(cc7c6CCCC7)C5=O)c4CO)cn(C)c3=O)nc2)CC1` [Example 197, 2-(5-fluoro-2-(hydroxymethyl)-3-(1-methyl-5-(5-(4-methylpiperazin-1-yl)pyridin-2-ylamino)-6-oxo-1,6-dihydropyridin-3-yl)phenyl)-3,4,6,7,8,9-hexahydropyrazino[1,2-a]indol-1(2H)-one], in that order: 22 nM and 23 nM.

Turning to `Cc1cc(Nc2cc(-c3cccc(N4CCc5c(cc6n5CCCC6)C4=O)c3CO)cn(C)c2=O)n[nH]1` [Example 225, 2-(2-(Hydroxymethyl)-3-(1-methyl-5-(5-methyl-1H-pyrazol-3-ylamino)-6-oxo-1,6-dihydropyridin-3-yl)phenyl)-3,4,6,7,8,9-hexahydropyrido[3,4-b]indolizin-1(2H)-one], the melting point was in the range of 199 to 200 °C.

For the compound `Cn1cc(-c2cccc(N3CCc4c(cc5n4CCCC5)C3=O)c2CO)cc(Nc2ccc(C3CNC3)cn2)c1=O` [Example 227, 2-(3-(5-(5-(Azetidin-3-yl)pyridin-2-ylamino)-1-methyl-6-oxo-1,6-dihydropyridin-3-yl)-2-(hydroxymethyl)phenyl)-3,4,6,7,8,9-hexahydropyrido[3,4-b]indolizin-1(2H)-one], the melting point was 227 to 229 °C. Compound `Cn1cc(-c2cc(F)cc(N3CCc4c(sc5c4CC(C)(C)C5)C3=O)c2CO)cc(Nc2ccc(N3CCN(C4COC4)CC3)cn2)c1=O` [Example 237] showed a melting point of 175 to 177 °C. `CC(C)N1CCN(c2ccc(Nc3cc(-c4cc(F)cc(N5CCc6c(sc7c6CC(C)(C)C7)C5=O)c4CO)cn(C)c3=O)nc2)CC1` [Example 239] had a melting point of 191 to 192 °C.

The compound `CN1CCN(c2ccc(Nc3cc(-c4cccc(N5CCc6c(cc7n6CCCC7)C5=O)c4CO)cn(C)c3=O)nc2)CC1` [Example 275, 2-(2-(Hydroxymethyl)-3-(1-methyl-5-(5-(4-methylpiperazin-1-yl)pyridin-2-ylamino)-6-oxo-1,6-dihydropyridin-3-yl)phenyl)-3,4,6,7,8,9-hexahydropyrido[3,4-b]indolizin-1(2H)-one] returned a melting point of 180 to 181 °C. Besides, half-maximal inhibition against Btk (IC50) was put at 16.3 nM. Consider `CN(C)CCN(C)c1ccc(Nc2cc(-c3cc(F)cc(N4CCc5c(sc6c5CCCC6)C4=O)c3CO)cn(C)c2=O)nc1` [Example 286, 2-(3-(5-(5-((2-(Dimethylamino)ethyl)(methyl)amino)pyridin-2-ylamino)-1-methyl-6-oxo-1,6-dihydropyridin-3-yl)-5-fluoro-2-(hydroxymethyl)phenyl)-3,4,5,6,7,8-hexahydrobenzothieno[2,3-c]pyridin-1(2H)-one], for which the melting point fell in the range of 122 to 123 °C. Also, in series [1], the midpoint of the response, the EC50, lay at 4 nM. In turn, `CN(Cc1cc(Nc2cc(-c3cc(F)cc(N4CCc5c(sc6c5CCCC6)C4=O)c3CO)cn(C)c2=O)nn1C)C1COC1` [Example 324, 5-[5-Fluoro-2-(hydroxymethyl)-3-{1-methyl-5-[(1-methyl-5-{[methyl(oxetan-3-yl)amino]methyl}-1H-pyrazol-3-yl)amino]-6-oxo-1,6-dihydropyridin-3-yl}phenyl]-8-thia-5-azatricyclo[7.4.0.0^2,7]trideca-1(9),2(7)-dien-6-one] yielded an IC50 in series [2] of 53 nM. This counts as double-digit nanomolar. The compound `CN1CCC(c2ccc(Nc3cc(-c4cccc(N5CCc6c(sc7c6CC(C)(C)C7)C5=O)c4CO)cn(C)c3=O)nc2)CC1` [Example 325, 10-[2-(Hydroxymethyl)-3-(1-methyl-5-{[5-(1-methylpiperidin-4-yl)pyridine-2-yl]amino}-6-oxopyridin-3-yl)phenyl]-4,4-dimethyl-7-thia-10-azatricyclo[6.4.0.0^2,6]dodeca-1(8),2(6)-dien-9-one] displayed an IC50 in series [2] of 24 nM. For `COCc1c(-c2cc(Nc3ccc(N4CCN(C)CC4)cn3)c(=O)n(C)c2)cc(F)cc1N1CCn2c(cc3c2CCCC3)C1=O` [Example 343, 2-{5-fluoro-2-(methoxymethyl)-3-(1-methyl-5-(5-(4-methylpiperazin-1-yl)pyridin-2-ylamino)-6-oxo-1,6-dihydropyridin-3-yl)phenyl)-3,4,6,7,8,9-hexahydropyrazino[1,2-a]indol-1(2H)-one], 53 nM corresponded to half-maximal inhibition in series [2] (IC50). Compared with the last compound, the IC50 is about 2.2-fold higher. Still for that read-out and setting: with `CN1CCN(c2ccc(Nc3cc(-c4cc(F)cc(N5CCn6c(cc7c6CCCC7)C5=O)c4CO)cn(C)c3=O)nc2)C(=O)C1` [Example 345, 2-(5-fluoro-2-(hydroxymethyl)-3-(1-methyl-5-(5-(4-methyl-2-oxopiperazin-1-yl)pyridin-2-ylamino)-6-oxo-1,6-dihydropyridin-3-yl)phenyl)-3,4,6,7,8,9-hexahydropyrazino[1,2-a]indol-1(2H)-one] the figure was 24 nM.

One may read the EC50 as the concentration giving half of the maximal effect. What is called IC50 is the concentration that inhibits the measured activity by half. A low value points to greater potency. In general, melting point refers to the temperature of the solid-liquid transition.
